Measurements published in patent publication US7098206B2, “Pharmaceutically active morpholinol” (SmithKline Beecham Corporation, priority 1998, dated 2006).
Read-outs that look alike come from different tables or passages of the source.

Experiments:
[1] = target: T1, dopamine uptake, synaptosomes from rat caudoputamen (Rattus norvegicus, UniProt P23977); test: In vitro synaptosomal [3H]-dopamine uptake; type: biochemical; conditions: for IC50: rat caudoputamen synaptosomes
T1 construct: Synaptosomes for use in obtaining in vitro uptake data were prepared from hypothalamus or striatum by gently homogenizing the tissue; from tissue; host or cells: rat caudoputamen (striatum) synaptosomes
T1 sequence (P23977 whole entry): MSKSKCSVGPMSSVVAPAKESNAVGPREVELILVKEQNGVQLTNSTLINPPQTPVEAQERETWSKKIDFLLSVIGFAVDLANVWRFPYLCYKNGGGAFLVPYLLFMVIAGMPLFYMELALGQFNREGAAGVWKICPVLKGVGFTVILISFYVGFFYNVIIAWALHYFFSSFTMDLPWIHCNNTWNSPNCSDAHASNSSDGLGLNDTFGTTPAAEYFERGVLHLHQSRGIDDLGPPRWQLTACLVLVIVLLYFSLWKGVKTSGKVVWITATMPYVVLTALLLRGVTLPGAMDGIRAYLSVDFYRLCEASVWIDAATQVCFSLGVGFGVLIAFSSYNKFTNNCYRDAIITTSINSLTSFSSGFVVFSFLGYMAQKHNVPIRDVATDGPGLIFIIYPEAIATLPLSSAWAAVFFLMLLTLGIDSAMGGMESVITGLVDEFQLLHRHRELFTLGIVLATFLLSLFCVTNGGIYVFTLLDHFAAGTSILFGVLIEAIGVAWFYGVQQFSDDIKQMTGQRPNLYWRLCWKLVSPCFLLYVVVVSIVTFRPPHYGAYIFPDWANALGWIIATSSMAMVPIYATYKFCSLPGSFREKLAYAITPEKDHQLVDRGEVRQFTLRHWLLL
Description: (§1) Similarities and differences. Molecular Pharmacology, 21: p.

[2] = target: T2, noradrenaline (NA) uptake, synaptosomes from rat hypothalamus (Rattus norvegicus, UniProt Q63380); test: In vitro synaptosomal [3H]-noradrenaline uptake; type: biochemical; conditions: for IC50: rat hypothalamus synaptosomes
T2 construct: Synaptosomes for use in obtaining in vitro uptake data were prepared from hypothalamus or striatum by gently homogenizing the tissue; from tissue; host or cells: rat hypothalamus synaptosomes
T2 sequence (Q63380 1-617): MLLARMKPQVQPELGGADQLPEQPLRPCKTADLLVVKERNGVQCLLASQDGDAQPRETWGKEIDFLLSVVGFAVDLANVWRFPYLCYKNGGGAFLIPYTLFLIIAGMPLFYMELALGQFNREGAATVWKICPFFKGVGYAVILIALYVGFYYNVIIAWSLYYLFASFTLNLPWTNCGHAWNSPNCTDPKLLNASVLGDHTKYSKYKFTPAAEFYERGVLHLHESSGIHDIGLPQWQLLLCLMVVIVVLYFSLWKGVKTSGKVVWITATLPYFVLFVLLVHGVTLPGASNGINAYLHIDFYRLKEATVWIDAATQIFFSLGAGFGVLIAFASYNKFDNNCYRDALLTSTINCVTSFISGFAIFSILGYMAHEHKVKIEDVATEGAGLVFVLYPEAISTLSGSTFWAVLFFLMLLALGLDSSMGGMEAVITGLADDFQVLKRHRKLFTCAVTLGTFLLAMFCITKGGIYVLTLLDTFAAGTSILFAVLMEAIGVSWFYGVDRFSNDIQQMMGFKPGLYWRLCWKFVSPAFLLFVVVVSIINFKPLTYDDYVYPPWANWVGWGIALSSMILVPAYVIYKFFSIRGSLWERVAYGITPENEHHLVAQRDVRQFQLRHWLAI
Description: as §1

[3] = system: TBZ-induced behavioural depression; test: Tetrabenazine-induced behavioural depression; type: in vivo, Male, CD-1 Mice; conditions: for effect on tetrabenazine-induced behavioural depression: 25 mg/kg (ip), FIG. 1; for dose-effect against TBZ-induced depression: 30 minutes prior to TBZ, n=6, FIGS. 2 and 3
Experimental: FIG. 2. Dose Response of Compound of Formula I Against TBZ-Induced Depression (Compounds administered 30 minutes prior to TBZ, Male, CD-1 Mice, i.p., n=6).
FIG. 3. Dose Response of Compound of Formula II Against TBZ-Induced Depression (Compounds administered 30 minutes prior to TBZ, Male, CD-1 Mice, i.p., n=6).
Tetrabenazine(TBZ)-induced behavioural depression was used as an in vivo measure of antidepressant activity. The test has been validated with a wide range of antidepressants, known to act through noradrenergic mechanisms (Cooper B. R. et al, “Animal models used in the prediction of antidepressant effects in man”, J. Clin. Psychiatry 44: 63–66, 1983). Moreover, the test was also used to identify Wellbutrin® as an anti-depressant. Briefly, animals were injected with the candidate agent (p.o. or i.p.) 30 minutes before receiving an i.p. injection of tetrabenazine (35 mg/kg, as the HCl salt—prepared fresh for each use). Assessments were performed 30 minutes thereafter and included: locomotor activity (1–4 scale); ptosis (1–4 scale) and body temperature as described previously (Cooper, B. R., J. L. Howard, and F. E. Soroko, Animal models used in prediction of antidepressant effects in man (Journal of Clinical Psychiatry, 44: p. 63–6, 1983). In all studies, the scientist performing the assessments was blind to the treatments. All parameters were weighted equally to give a “lumped” score (X) through the following algorithm: X=(1+Ptosis score)/(Activity score*[Temp,treated/Temp,control]

[4] = Dose-ranging safety study: serious adverse events (seizures and deaths); type: in vivo; conditions: for seizures observed, in words: 100 mg/kg p.o.
Experimental: Additional dose-ranging studies were performed to determine the range of safe doses for the isomers and the racemate. […]

[5] = system: MPTP-induced Parkinsonian marmosets; test: MPTP-treatment Parkinson's disease model; type: in vivo; conditions: hydrochloride salt, once weekly by oral gavage, MPTP-treated marmosets
Experimental: Locomotor deficits and motor disability were induced in marmosets by the administration of MPTP 2 mg/kg sc on five consecutive days. After the acute effects of MPTP administration had been overcome, bradykinesia, rigidity and loss of vocalisation remained. The compound of formula (I) (as its hydrochloride salt) was administered once weekly by oral gavage, freshly dissolved in 10% sucrose solution with dosages calculated as the free base. […] Assessment of motor disablities was by an observer through a one-way mirror: alertness, checking movements, posture, balance/co-ordination, reaction, vocalisation and motility were each scored. A score of zero indicated a “normally” behaing animal, while a maximum total score of 18 in the monitoring period indicated a severely disabled animal.

[6] = system: CCI-induced decrease in mechanical paw withdrawal threshold; test: Chronic constriction injury model of mononeuropathy; type: in vivo, male Random Hooded rats; conditions: CCI rats, FIG. 6
Description: Mononeuropathy was reproduced in male Random Hooded rats (180–250 g) using the Chronic Constriction Injury (CCI) model as described by Bennett and Xie (1988). Under Isoflurane anaesthesia, the common left sciatic nerve of the rats was exposed at mid thigh level. Four ligatures of Chromic gut (4.0) were tied loosely around the nerve with a 1 mm spacing between each. The wound was then closed and secured with suture staples. The surgical procedure was identical for the sham operated animals except the sciatic nerve was not ligated. The animals were allowed a period of 12 days to recover from the surgery before any behavioural testing began.
The effect of the compound of formula (I) (administered as the hydrochloride salt at 20 mgkg^−1 t.i.d. p.o. chronically for a period of 7 days) on CCI-induced decrease in mechanical paw withdrawal threshold was measured using an algesymeter (Randall & Selitto, 1957).

[7] = system: sexual behaviour of male mice; test: Mouse sexual behaviour model; type: in vivo, mice (C57BL/6 inbred strain); conditions: hydrochloride salt
Experimental: Male (10 weeks old) and female (8 weeks old) mice (C57BL/6 inbred strain, Charles River, Como (Italy) that had no reproductive or copulatory experience were used in the study. Females were brought into behavioral oestrus with s.c. injections of 0.03 mg estradiol benzoate approximately 48 hr before testing and 0.1 mg progesterone, in sesame oil, 4 hr before testing.
The compound of formula (I) (as its hydrochloride salt) was dissolved in saline to provide a solution for intraperitoneal injection at a dose of 3 mg/kg, with a dose volume of 10 ml/kg. Dosing was performed one hour prior to the test.
Tests were conducted in Perspex arenas, 30 cm in diameter and 50 cm high, which were placed in the cage in which males had been placed individually one day prior to test. The sexual behaviour was filmed remotely under red light for 30 min using a video camera and recorder, the test starting immediately after placing a female mouse into the male's cage. Behavior parameters recorded were (i) the extent of male/female interaction, (ii) the extent of genital sniffing, and (iii) the mount frequency (the number of male mounts).

[8] = target: T3, serotonin uptake, synaptosomes from rat hypothalamus (Rattus norvegicus, UniProt P31652); conditions: at 30 mM (so in the source)
T3 sequence (P31652 whole entry): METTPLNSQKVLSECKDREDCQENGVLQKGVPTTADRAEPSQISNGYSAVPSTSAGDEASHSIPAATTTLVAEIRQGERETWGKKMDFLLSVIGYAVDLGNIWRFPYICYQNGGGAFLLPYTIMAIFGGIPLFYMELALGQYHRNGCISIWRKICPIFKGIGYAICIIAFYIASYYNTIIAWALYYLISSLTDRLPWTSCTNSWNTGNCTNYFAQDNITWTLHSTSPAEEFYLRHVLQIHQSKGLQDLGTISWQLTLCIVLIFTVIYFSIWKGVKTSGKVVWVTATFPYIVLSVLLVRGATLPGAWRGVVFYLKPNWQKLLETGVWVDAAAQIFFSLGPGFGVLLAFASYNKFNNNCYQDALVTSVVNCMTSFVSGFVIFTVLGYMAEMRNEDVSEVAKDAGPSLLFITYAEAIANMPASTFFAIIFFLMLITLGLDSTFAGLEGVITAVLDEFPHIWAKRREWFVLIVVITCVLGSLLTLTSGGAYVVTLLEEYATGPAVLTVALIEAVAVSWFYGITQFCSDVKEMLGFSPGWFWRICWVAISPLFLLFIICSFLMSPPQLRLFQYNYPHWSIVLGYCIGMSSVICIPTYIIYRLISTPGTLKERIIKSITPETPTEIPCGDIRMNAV
Experimental: (§2) In vitro uptake was determined, as reported previously, using synaptosomes prepared from rat caudoputamen (for dopamine uptake) and hypothalamus (for NA and serotonin uptake) using [^3H]-dopamine, [^3H]-NA and [^3H]-serotonin as transport substrates, respectively.
(§3) Synaptosomes for use in obtaining in vitro uptake data were prepared from hypothalamus or striatum by gently homogenizing the tissue in a 0.3 M sucrose/25 mM Tris pH 7.4 buffer containing iproniazid phosphate to inhibit monoamine oxidase. The homogenate was centrifuged at 1100×g at 4° C. for 10 min and the supernatant was used for uptake studies. […] Under these conditions uptake was linear with respect to both for substrate and tissue (with <5% total substrate transported). Non-specific uptake was defined as uptake at 0° C. [^3H]-substrate, which had been transported into synaptosomes, was separated from free [^3H]-substrate by filtration over GF/B filters and washing with cold Krebs-Henseleit buffer. The filters were counted for tritum in a liquid scintillation spectrometer.

[9] = target: T3, serotonin uptake, synaptosomes from rat hypothalamus; test: biochemical
Experimental: as §2, §3

[10] = read-out: IC50, [3H]-Dopamine Uptake
[11] = 3 mg/kg intraperitoneal, one hour prior to 30 min test
[12] = intraperitoneal injection, versus control

Row | SMILES | IC50 [1, 10] [µM] | IC50 [2] [µM] | effect on tetrabenazine-induced behavioural depression [3] | seizures observed, in words [4] | % Died ([4]; i.p., 100 mg/kg) [%] | Seizures (%) ([4]; i.p., 100 mg/kg) | Time to Death ([4]; i.p., 100 mg/kg) [min] | Time to Seizures ([4]; i.p., 100 mg/kg) [min] | % Died ([4]; i.p., 300 mg/kg) [%] | Seizures (%) ([4]; i.p., 300 mg/kg) | Time to Death ([4]; i.p., 300 mg/kg) [min] | Time to Seizures ([4]; i.p., 300 mg/kg) [min] | % Died ([4]; p.o., 100 mg/kg) [%] | Seizures (%) ([4]; p.o., 100 mg/kg) | Time to Seizures ([4]; p.o., 100 mg/kg) [min] | % Died ([4]; p.o., 300 mg/kg) [%] | Seizures (%) ([4]; p.o., 300 mg/kg) | Time to Death ([4]; p.o., 300 mg/kg) [min] | Time to Seizures ([4]; p.o., 300 mg/kg) [min] | dose-effect against TBZ-induced depression ([3]; i.p.) | also measured
1 | CC(NC(C)(C)C)C(=O)c1cccc(Cl)c1.Cl (racemic) [Bupropion, (±)-1-(3-chlorophenyl)-2-[(1,1-dimethylethyl)amino]-1-propanone hydrochloride] | 1.9 | 2.2 | abolished the tetrabenazine-induced behavioural depression | – | – | – | – | – | – | – | – | – | – | – | – | – | – | – | – | – | –
2 | CC1NC(C)(C)COC1(O)c1cccc(Cl)c1.Cl (racemic) [Racemate, (+/−)-(2R*,3R*)-2-(3-chlorophenyl)-3,5,5-trimethyl-2-morpholinol] | – | – | – | seizures were observed | 20 | 100 | 14 | 3 | 100 | 100 | 3 | 3 | 0 | 100 | 9.2 | 80 | 100 | 7 | 6.8 | – | –
3 | C[C@@H]1NC(C)(C)CO[C@@]1(O)c1cccc(Cl)c1 (single isomer, unassigned) [Formula (I)] | 9.3 | – | abolished the tetrabenazine-induced behavioural depression | – | 0 | 100 | – | 3.93 | 100 | 100 | 6 | 3.95 | 0 | 0 | – | 0 | 100 | – | 11.23 | sharp increase in activity between 3 mg/kg and 6 mg/kg | IC50 ([1]; IC50, [3H]-Dopamine Uptake): ~10 µM; potency as inhibitor of dopamine uptake, fold less potent ([1]; unlike Wellbutrin, comparison as worded): approximately 10 fold; potency as NA inhibitor relative to Wellbutrin ([2]; versus Wellbutrin): approximately twice as potent; locomotor deficits ([5]; FIG. 4): reversed the locomotor deficits; motor disability ([5]; FIG. 5): reversed; mechanical paw withdrawal threshold on cessation of treatment ([6]; after 20 mgkg−1 t.i.d. p.o. for 7 days): falling back towards CCI-operated vehicle-treated levels; mechanical paw withdrawal threshold during chronic dosing ([6]; hydrochloride salt, 20 mgkg−1 t.i.d. p.o. for 7 days): reversal was maintained throughout the chronic dosing period; mechanical paw withdrawal threshold after a single dose ([6]; hydrochloride salt, single dose 20 mgkg−1 p.o.): immediate reversal of the fall in paw withdrawal threshold back towards sham operated levels; M/F interaction [7, 11]: *228.8 ± 30.3 sec; Mount frequency, No. of events ± SEM [7, 11]: 6.6 ± 1.7; Time spent in genital sniffing [7, 11]: *203.6 ± 30.1 sec; genital sniffing, change in words [7, 12]: statistically significant (unpaired t-test) increase; male/female interaction, change in words [7, 12]: statistically significant (unpaired t-test) increase; mount frequency, change in words [7, 12]: trend towards increasing mount frequency; % Died ([4]; i.p., 100 mg/kg, listed as compound of formula I): No deaths were observed; % Died ([4]; p.o., 300 mg/kg, listed as compound of formula I): no deaths were observed; inhibition of serotonin uptake at a fixed concentration [8]: Neither compound inhibited serotonin uptake; IC50 [9]: > 30 µM
4 | C[C@H]1NC(C)(C)CO[C@]1(O)c1cccc(Cl)c1 (single isomer, unassigned) [Formula (II)] | > 100 | > 30 | only modest activity | seizures were observed | 100 | 20 | 7 | 5 | 100 | 100 | 6 | 1.1 | 0 | 100 | 7.2 | 100 | 100 | 7 | 6.8 | did not possess dose-related activity | inhibition of dopamine (DA) uptake at a fixed concentration ([1]; at 30 μM): inactive; inhibition of noradrenaline (NA) uptake at a fixed concentration ([2]; at a concentration of 30 μM): ineffective; effect on TBZ-induced depression at the top dose ([3]; 50 mg/kg, i.p., FIG. 3): appeared to worsen the animal's condition; inhibition of serotonin uptake at a fixed concentration [8]: Neither compound inhibited serotonin uptake; IC50 [9]: > 100 µM
5 | CC1NC(C)(C)COC1(O)c1cccc(Cl)c1 (stereo not drawn) [Racemate, (+/−)-(2R*,3R*)-2-(3-chlorophenyl)-3,5,5-trimethyl-2-morpholinol] | – | – | abolished the tetrabenazine-induced behavioural depression | – | – | – | – | – | – | – | – | – | – | – | – | – | – | – | – | – | –
6 | CN(C)CCC=C1c2ccccc2CCc2ccccc21 [amitryptyline] | – | – | abolished the tetrabenazine-induced behavioural depression | – | – | – | – | – | – | – | – | – | – | – | – | – | – | – | – | – | –
